Laboratory results from patent US4820834A, “Benzodiazepine analogs” (priority 1987, dated 1989).
Like-named read-outs stand apart in the source and are kept apart here.

Columns and labels:
[1] = target: T1, CCK receptor (brain, cerebral cortex) (Cavia porcellus, UniProt H0VZC5); test: biochemical; format: binding, Male Hartley guinea pigs; details: guinea pig cerebral cortex, ^125 I-CCK-33, 25° C., 2 hours
T1 construct: Cerebral cortex was dissected and used as a receptor source; from tissue; host or cells: guinea pig cerebral cortex membranes (male Hartley)
T1 sequence (H0VZC5 1-426): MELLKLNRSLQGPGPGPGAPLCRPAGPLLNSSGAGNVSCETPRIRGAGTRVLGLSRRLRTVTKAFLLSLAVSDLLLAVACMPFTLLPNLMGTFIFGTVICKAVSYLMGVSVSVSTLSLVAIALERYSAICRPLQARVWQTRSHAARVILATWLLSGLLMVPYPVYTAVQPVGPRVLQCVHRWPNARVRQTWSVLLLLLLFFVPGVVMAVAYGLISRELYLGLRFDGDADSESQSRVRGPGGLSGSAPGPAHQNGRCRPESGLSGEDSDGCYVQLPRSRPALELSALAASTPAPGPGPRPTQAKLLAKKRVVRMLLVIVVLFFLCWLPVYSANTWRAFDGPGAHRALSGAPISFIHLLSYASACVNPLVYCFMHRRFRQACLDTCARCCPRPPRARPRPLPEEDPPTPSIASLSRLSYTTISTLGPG
Summary of the method: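 Binding of [radiolabeled] CCK-33 measured by gamma counting of centrifuged pellets after 2 h at 25°C. Membranes came from guinea pig brain cortex, suspended in 10 mM HEPES, 5 mM MgCl2, 1 mM EGTA, 0.25 mg/ml bacitracin, 0.4% BSA.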

[2] = target: T2, CCK receptor (pancreas) (Rattus norvegicus, UniProt P30551); test: CCK Receptor Binding (Pancreas): inhibition of ^125 I-CCK-33 binding; design: species or system Male Sprague-Dawley rats; details: rat pancreas membranes, ^125 I-CCK-33, 37° C., 30 minutes
T2 construct: The whole pancreas was dissected free of fat tissue and was homogenized; from tissue; host or cells: rat pancreas membranes (Sprague-Dawley)
T2 sequence (P30551 1-444): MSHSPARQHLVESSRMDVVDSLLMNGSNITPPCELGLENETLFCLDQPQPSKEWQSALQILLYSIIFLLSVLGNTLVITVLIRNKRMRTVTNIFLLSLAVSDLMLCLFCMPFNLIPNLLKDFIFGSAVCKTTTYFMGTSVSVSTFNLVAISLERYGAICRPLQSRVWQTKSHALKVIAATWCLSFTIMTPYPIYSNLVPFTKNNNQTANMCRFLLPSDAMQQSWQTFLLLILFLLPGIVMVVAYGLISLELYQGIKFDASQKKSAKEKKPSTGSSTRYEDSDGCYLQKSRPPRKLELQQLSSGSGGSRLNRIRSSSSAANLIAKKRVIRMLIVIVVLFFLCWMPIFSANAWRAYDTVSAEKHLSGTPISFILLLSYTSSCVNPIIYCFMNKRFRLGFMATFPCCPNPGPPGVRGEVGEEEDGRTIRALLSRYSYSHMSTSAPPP
Summary of the method: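 Bound ^125I-CCK-33 was counted in pellets after a 30 min, 37° C incubation followed by centrifugation. Membranes came from male Sprague-Dawley rat pancreas, assayed in Tris HCl pH 7.7 containing DTT, bacitracin, PMSF and o-phenanthroline. For Scatchard analysis, tracer was diluted with rising unlabelled CCK-33.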

[3] = target: T3, Gastrin receptor (gastric glands) (Cavia porcellus, UniProt H0VZC5); test: Gastrin Receptor Binding in Guinea Pig Gastric Glands; design: species or system guinea pig (male Hartley); details: 25° C., 30 minutes
T3 construct: The washed guinea pig gastric glands prepared as above were resuspended; from tissue; host or cells: guinea pig gastric mucosal glands (male Hartley)
T3 sequence (H0VZC5 1-426): T1 sequence (H0VZC5 1-426)

[4] = IC50 ^125 I-Gastrin Gastric Glands
[5] = read-out: IC50 ^125 I-CCK Brain
[6] = read-out: IC50 ^125 I-CCK Pancreas
[7] = ^125 I-gastrin, read-out: IC50 ^125 I-Gastrin Gastric Glands

Structure (SMILES) | IC50 ([1]; IC50 ^125 I-CCK Brain) | IC50 ([2]; IC50 ^125 I-CCK Pancreas) | IC50 [3, 4] | IC50 [1, 5] | IC50 [2, 6] | IC50 [3, 7]
CCCCCc1ccc(C(=O)NC2N=C(c3ccccc3F)c3ccccc3N(C)C2=O)cc1 (stereo not drawn) [Example 223, N-(5-(2-Fluorophenyl)-2,3-dihydro-1-methyl-2-oxo-1H-1,4-benzodiazepin-3-yl)-4-pentylbenzamide] | > 100000 nM | 140 nM | > 100000 nM | – | – | –
CSC1=N[C@@H](Cc2c[nH]c3ccccc23)C(=O)N(C)c2ccccc21 [Example 8, 1,3-Dihydro-3(S)-(3'-indolyl)methyl-1-methyl-5-methylthio-2H-1,4-benzodiazepin-2-one] | – | – | – | 100000 nM | 100000 nM | 227000 nM
CN1C(=O)C(NC(=O)Nc2cccc(Br)c2)N=C(c2ccccc2)c2ccccc21 (stereo not drawn) [Example 272, N-(3-Bromophenyl)-N'-(2,3-dihydro-1-methyl-2-oxo-5-phenyl-1H-1,4-benzodiazepin-3-yl)-urea] | 5 nM | – | 2.8 nM | – | 4.4 nM | –
CCOC(=O)CN1C(=O)C(NC(=O)OCc2ccccc2)N=C(c2ccccc2)c2ccccc21 (stereo not drawn) [Example 209, 2,3-Dihydro-2-oxo-5-phenyl-3-(((phenylmethoxy)carbonyl)amino)-1H-1,4-benzodiazepine-1-acetic acid ethyl ester] | – | 2200 nM | – | 300 nM | – | 300 nM
COc1cccc(NC(=O)NC2N=C(c3ccccc3)c3ccccc3N(C)C2=O)c1 (stereo not drawn) [Example 247, N-(2,3-Dihydro-1-methyl-2-oxo-5-phenyl-1H-1,4-benzodiazepin-3-yl)-N'-(3-methoxyphenyl)-urea] | 3 nM | – | – | – | 6.2 nM | 1.6 nM
CCNC(=O)CN1C(=O)C(NC(=O)OCc2ccccc2)N=C(c2ccccc2)c2ccccc21 (stereo not drawn) [Example 215] | – | 4800 nM | – | 1800 nM | – | 560 nM
COc1ccc(NC(=O)NC2N=C(c3ccccc3)c3ccccc3N(C)C2=O)cc1 (stereo not drawn) [Example 253, N-(2,3-Dihydro-1-methyl-2-oxo-5-phenyl-1H-1,4-benzodiazepin-3-yl)-N'-(4-methoxvphenyl)-urea] | 20 nM | 160 nM | 45 nM | – | – | –
CCN(CC)C(=O)CN1C(=O)C(NC(=O)Nc2cccc(OC)c2)N=C(c2ccccc2)c2ccccc21 (stereo not drawn) [Example 285, 3-{[((3-Methoxyphenyl)amino)carbonyl)amino]-N,N-diethyl-2,3-dihydro-2-oxo-5-phenyl-1H-1,4-benzodiazepin-1-acetamide] | – | > 100 nM | – | 0.22 nM | – | 0.26 nM
CN1C(=O)[C@H](NC(=O)c2ccccc2Cl)N=C(c2ccccc2F)c2ccccc21 [Example 172, 3(R)-(+)-3-(2-Chlorobenzoylamino)-1,3-dihydro-5-(2-fluorophenyl)-1-methyl-2H-1,4-benzodiazepin-2-one] | 16000 nM | – | 3700 nM | – | 3400 nM | –
CCN(CC)C(=O)CN1C(=O)C(NC(=O)Nc2ccc(Cl)cc2)N=C(c2ccccc2)c2ccccc21 (stereo not drawn) [Example 221, 3-((((4-Chlorophenyl)amino)carbonyl)amino)-N,N-diethyl-2,3-dihydro-2-oxo-5-phenyl-1H-1,4-benzodiazepine-1-acetamide] | – | – | – | 0.6 nM | 400 nM | 2 nM
CCNC(=O)CN1C(=O)C(NC(=O)Nc2ccc(Cl)cc2)N=C(c2ccccc2)c2ccccc21 (stereo not drawn) [Example 224, 3-((((4-Chlorophenyl)amino)carbonyl)amino)-N-ethyl-2,3-dihydro-2-oxo-5-phenyl-1H-1,4-benzodiazepine-1-acetamide] | – | – | – | 11 nM | 2100 nM | 25 nM
O=C(NN=C1Nc2ccccc2C(c2ccccc2F)=N[C@@H]1Cc1c[nH]c2ccccc12)c1ccsc1 [Example 35, 1,3-Dihydro-5-(2-fluorophenyl)-3(R)-(3'-indolyl)methyl-2H-1,4-benzodiazepin-2-[N'-(3-thienoyl)]hydrazide] | 15000 nM | 10000 nM | > 100000 nM | – | – | –
CN1C(=O)C(NC(=O)NC(C)(C)C)N=C(c2ccccc2)c2ccccc21 (stereo not drawn) [Example 260, N-(2,3-Dihydro-1-methyl-2-oxo-5-phenyl-1H-1,4-benzodiazepin-3-yl)-N'-(1,1-dimethylethyl)-urea] | 38000 nM | – | > 1000 nM | – | 6800 nM | –
CN1CCN(C(=O)CN2C(=O)C(NC(=O)OCc3ccccc3)N=C(c3ccccc3)c3ccccc32)CC1 (stereo not drawn) [Example 235, (2,3-Dihydro-1-(2-(4-methyl-1-piperazinyl)-2-oxoethyl)-2-oxo-5-phenyl-1H-1,4-benzodiazepin-3-yl)-carbamic acid phenylmethyl ester] | – | 29000 nM | – | 1700 nM | – | 1400 nM
CC1=C(C(=O)NC2N=C(c3ccccc3F)c3ccccc3NC2=O)Cc2ccccc21 (racemic) [Example 115, 1,3-Dihydro-3-(RS)-(3'-methylindenyl-2-carbonyl)amino-5-(2-fluorophenyl)-2H-1,4-benzodiazepin-2-one] | – | 22 nM | – | 3500 nM | – | > 10000 nM
CN1C(=O)C(NC(=O)Nc2ccc(Cl)cc2Cl)N=C(c2ccccc2)c2ccccc21 (stereo not drawn) [Example 258, N-(2,4-Dichlorophenyl)-N'-(2,3-dihydro-1-methyl-2-oxo-5-phenyl-1H-1,4-benzodiazepin-3-yl)-urea] | 220 nM | – | 60 nM | – | 3 nM | –
CN1C(=O)C(NC(=O)Nc2cccc(F)c2)N=C(c2ccccc2)c2ccccc21 (stereo not drawn) [Example 271, N-(2,3-Dihydro-1-methyl-2-oxo-5-phenyl-1H-1,4-benzodiazepin-3-yl)-N'-(3-fluorophenyl)-urea] | 54 nM | – | 10 nM | – | 10 nM | –
CSC1=N[C@@H](Cc2cn(C)c3ccccc23)C(=O)N(C)c2ccccc21 [Example 7, 1,3-Dihydro-3(S)-[3'-(1'-methylindolyl)methyl]-1-methyl-5-methylthio-2H-1,4-benzodiazepin-2-one] | – | – | – | 100000 nM | > 100000 nM | > 100000 nM
O=C(N[C@H]1N=C(c2ccccc2)c2ccccc2NC1=O)c1cc2ccccc2[nH]1 [Example 187, 3(S)-(2-Indolecarbonyl)amino-1,3-dihydro-5-phenyl-2H-1,4,-benzodiazepin-2-one] | 1300 nM | 3 nM | 5300 nM | – | – | –
CN1C(=O)[C@@H](N)N=C(c2ccccc2)c2ccccc21 [Example 85a, 3(S)-(-)-3-Amino-1,3-dihydro-1-methyl-5-phenyl-2H-1,4-benzodiazepin-2-one] | > 100000 nM | – | > 100000 nM | – | 100000 nM | –
CN1C(=O)[C@H](NC(=O)c2cc3ccccc3[nH]2)N=C(c2ccccc2F)c2ccccc21 [Example 89, 3(R)-(-)-1,3-Dihydro-5-(2-fluorophenyl)-3-(2-indole-carbonylamino)-1-methyl-2H-1,4-benzodiazepin-2-one] | 1100 nM | – | – | – | 19 nM | 240 nM
CC(C)C[C@H]1N=C(c2ccccc2)c2cc(Cl)ccc2NC1=O [Example 14, 7-Chloro-1,3-dihydro-3(R)-(2-methyl-1-propyl)-5-phenyl-2H-1,4-benzodiazepin-2-one] | 60000 nM | 42000 nM | 12000 nM | – | – | –
CCOC(=O)CN1C(=O)C(NC(=O)Cc2ccc(Cl)cc2)N=C(c2ccccc2)c2ccccc21 (stereo not drawn) [Example 239, 3-(((4-Chlorophenyl)acetyl)amino)-2,3-dihydro-2-oxo-5-phenyl-1H-1,4-benzodiazepine-1-acetic acid ethyl ester] | – | 1700 nM | – | 38 nM | – | 4.5 nM
